In patent US8293495B2, “Blood-brain barrier model” (Wisconsin Alumni Research Foundation, priority 2006, dated 2012):
Where a name gives a salt, the structure may show the parent alone.

Assays:
BMEC = BMEC treated with glucocorticoid; cited from earlier work
[1] = Fluorescein flux through BMEC monolayer co-cultured with differentiating NPC (in vitro BBB model); type: in vitro ADME, rat; conditions: rat; through the in vitro model, BMEC with NPC co-culture, 1 μM apical; read-out: permeability (Pe) (converted)
Source text: (§1) Many methods can be used to determine BBB permeability as well as uptake and efflux rates using an in vitro model. As an example, the rates for trans-BBB transport can be used to directly determine a pseudo steady-state permeability value (Pe) which is an estimate of in vivo permeability for a particular pharmaceutical compound, protein, or drug carrier. With the assumption that the concentration in the upper fluid compartment is static, and with a correction for the resistance provided by the membrane itself, the permeability can be readily determined for each test compound. Briefly, the transcytosis rate (Q) can be divided by the concentration of material added to the apical chamber (Ca) and the area of the membrane (Am) to yield a total permeability (Pt) that includes resistances due to the monolayer and the membrane (Pt=Q/[AmCa], or using clearance volume terminology Pt is equal to the slope of the clearance volume versus time line divided by the membrane area). Subsequently, Pe can be calculated by correcting for the resistance supplied by the cell free membrane (Pm) (1/Pe=1/Pt−1/Pm) (Bickel, U. How to measure drug transport across the blood-brain barrier. NeuroRx 2005, 2, 15-26.).
(§2) The permeability was assessed by determining the flux of fluorescein through the BMEC monolayer. Fluorescein sodium salt in DMEM was added to the apical filter compartment to produce a uniform initial concentration of 1 μM. Subsequently, 200 μl were removed from the basolateral compartment after 0, 15, 30, 45, and 60 min. The fluorescence was measured with the FLx800 fluorescence reader (Bio-Tek Instruments) and the rates of fluorescein accumulation in the lower compartment used to determine the permeability as described previously (Perriere et al. 2005).

BMEC monolayer = assay: as above; type: in vitro ADME, rat
Source text: as §1, §2

[2] = cited from earlier work
rat BMEC = rat BMEC co-cultured with astrocytes; cited from earlier work

C[C@]12C[C@H](O)[C@H]3[C@@H](CCC4=CC(=O)CC[C@@]43C)[C@@H]1CC[C@@H]2C(=O)CO [corticosterone]
TEER (BMEC): 168 Ω×cm^2 | frayed junctions (BMEC): 21 % frayed

C[C@]12CCC(=O)C=C1CC[C@@H]1[C@@H]2[C@@H](O)C[C@@]2(C)[C@H]1CC[C@]2(O)C(=O)CO [hydrocortisone]
TEER (BMEC): 218 Ω×cm^2 | frayed junctions (BMEC): 12 % frayed

O=C1OC2(c3ccc(O)cc3Oc3cc(O)ccc32)c2ccccc21 [fluorescein, Fluorescein sodium salt]
Papp A→B at 60 min, 1 μM [1]: 5.5 ×10⁻⁶ cm/s | reduction of monolayer permeability by NPC co-culture (BMEC monolayer; BMEC with differentiating NPC vs BMEC without NPC, 24 h co-culture): 33% | permeability (Pe) (BMEC monolayer; through the in vitro model, BMEC with NPC co-culture, 1 μM apical): 5.5 ×10⁻⁶ cm/s | crossing of the BBB in vivo [2]: does not appreciably cross the BBB | fluorescein permeability (rat BMEC): 4.5 ×10⁻⁶ cm/s
